Here are results for one molecule from patent US10683382B2, “Copolymer comprising a lignin or lignin derivative and a poly(alkylene oxide) alkyl ether (meth)acrylate, and a hydrogel comprising the copolymer” (AGENCY FOR SCIENCE, TECHNOLOGY AND RESEARCH, priority 2015, dated 2020).

The data set deals with human dermal fibroblasts. The data set can be described thus: MTT assay, cell viability. Format: cell-based. Conditions: 1, 5, 10 μM; up to 72 hours. Here is the method: MTT assays were performed to assess the metabolic activity of human dermal fibroblasts. Human dermal fibroblasts were seeded in 96-well plates (Costar, USA) at a density of 1×10^4 cells/mL. After 24 hours of incubation, the medium was replaced by the Lig-PEG1, Lig-PEG2, Lig-PEG4, α-CD and P(PEGMA) (Mn=18 000 g/mol) aqueous solutions at concentrations of 10 μM, 5 μM and 1 μM, respectively. The cells were then incubated for 24 hours, 48 hours and 72 hours, respectively. After the designated time intervals, the wells were washed twice with 1×PBS buffer, and 100 μL of freshly prepared MTT (0.5 mg/mL) solution in culture medium was added to each well. The MTT medium solution was carefully removed after 3 hours incubation in the incubator. DMSO (100 μL) was then added into each well, and the plate was gently shaken for 10 minutes at room temperature to dissolve all precipitates formed. The absorbance of MTT at 570 nm was monitored by the microplate reader (Genios Tecan, Switzerland). Cell viability was expressed by the ratio of absorbance of the cells incubated with polymer solution to that of the cells incubated with culture medium only.
(In general: Formazan colour is commonly taken as a measure of viable cells.)

With `OC[C@H]1O[C@@H]2O[C@H]3[C@H](O)[C@@H](O)[C@@H](O[C@H]4[C@H](O)[C@@H](O)[C@@H](O[C@H]5[C@H](O)[C@@H](O)[C@@H](O[C@H]6[C@H](O)[C@@H](O)[C@@H](O[C@H]7[C@H](O)[C@@H](O)[C@@H](O[C@H]1[C@H](O)[C@H]2O)O[C@@H]7CO)O[C@@H]6CO)O[C@@H]5CO)O[C@@H]4CO)O[C@@H]3CO` [α-CD, α-cyclodextrin], the cytotoxicity result is listed as “no cytotoxicity”.
